Data set [1] can be described thus: Displacement of radiolabeled estradiol ABAD (unknown origin) transfected in HEK293 cells. In kind it is cell-based, Homo sapiens.
For data set [2], the system named is HEK293. Briefly: Displacement of radiolabeled estradiol ABAD (unknown origin) transfected in HEK293 cells at 300 uM relative to control. In kind it is cell-based. Particulars: Homo sapiens.
The subject of data set [3] is HEK293. Briefly: Displacement of radiolabeled estradiol ABAD (unknown origin) transfected in HEK293 cells at 100 uM relative to control. In kind it is cell-based. Particulars: Homo sapiens.
Data set [4] can be described thus: Drug uptake in C57BL/6 mouse brain at 10 mg/kg by LC-MS/MS analysis. It counts as ADME, organism-based. Particulars: in vivo.
The nature of data set [5]: Cmax in C57BL/6 mouse at 10 mg/kg by LC-MS/MS analysis. It counts as ADME, organism-based. Further details: dose 10 mg/kg. Particulars: in vivo.
Data set [6] in a line: Inhibition of ABAD (unknown origin). Further details: species or system Homo sapiens.

pIC50: −log10 of the molar value.

Broadly, the pIC50 is −log10 of the IC50, conventionally taken in molar units. A high value points to a low IC50. The term inhibition denotes the share of the control response that was lost under treatment. Higher therefore signals a response far below the control. The term Cmax denotes the highest concentration seen after dosing.

Regarding `COc1cccc(CN2CCN(C[C@@]3(O)CC[C@@]4(C)[C@@H](CC[C@@H]5[C@@H]4CC[C@]4(C)C(=O)CC[C@@H]54)C3)CC2)c1`, the negative logarithm of the IC50 (pIC50) in data set [1] was 6.26. Also, the inhibition in the data set on HEK293 [2] worked out at 30%; in the data set with HEK293 [3], 4.7%.
For `COc1ccc2nc(N[C@@H](c3ccc(O)cc3)P(=O)(OC)OC)sc2c1`, the Drug uptake in data set [4] lay within 4 to 50 ng/mL. The peak level in data set [5] (Cmax) was 4.8 ng/mL. In addition, the pIC50 in data set [6] was 4.28.
`COc1ccc(NC(=N)Nc2nc3ccc(OC)cc3s2)cc1` had a pIC50 in data set [6] of 5.51.
As for `O=C(Nc1ccc(O)c(Cl)c1)Nc1nc2ccc(F)cc2s1`, the pIC50 in data set [6] is 5.72.
Still for that read-out and setting: as for `CCN(CC)C(=O)C(c1ccccc1)n1cnc2[nH]ncc2c1=S` (stereo unspecified), the figure is 7.03.
The compound `O=C(C(c1ccccc1)n1cnc2[nH]ncc2c1=S)N1CCC(O)(c2ccc(Br)cc2)CC1` (stereo unspecified) showed a pIC50 in data set [6] of 7.09.
On to `CCCCC1(O)CCN(C(=O)C(c2ccccc2)n2cnc3[nH]ncc3c2=S)CC1` (stereo unspecified), for which, in data set [6], the pIC50 was 7.15.
On the same count and under the same terms, the result for `O=C([C@H](c1ccccc1)n1cnc2[nH]ncc2c1=S)N1CCCCCC1` reads 7.04; that for `O=C(C(c1ccccc1)n1cnc2[nH]ncc2c1=S)N1CCC(O)(c2ccccc2)CC1` (stereo unspecified), 7.09; that for `O=C(Nc1ccc(O)c(Cl)c1)Nc1nc2ccc(Cl)cc2s1`, 5.78.
Still for that read-out and setting: as for `O=C(C(c1ccccc1)n1cnc2[nH]ncc2c1=S)N1CCCCCCC1` (stereo unspecified), the figure is 7.02.
The same measure, in the same setting: as for `O=C(C(c1cccc(O)c1)n1cnc2[nH]ncc2c1=S)N1CCCCCC1` (stereo unspecified), the figure is 7.29.

Values taken from ChEMBL document CHEMBL4396863, “Amyloid-Binding Alcohol Dehydrogenase (ABAD) Inhibitors for the Treatment of Alzheimer's Disease” (J Med Chem, 2019).
